# “And” between values parts separate entries of the source, which are not always exact repeats. Equal values may be shown once.
# Target: T1, Oxaloacetate decarboxylase (Pseudomonas aeruginosa (strain ATCC 15692 / DSM 22644 / CIP 104116 / JCM 14847 / LMG 12228 / 1C / PRS 101 / PAO1), UniProt Q9HUU1)
# T1 sequence (Q9HUU1 whole entry): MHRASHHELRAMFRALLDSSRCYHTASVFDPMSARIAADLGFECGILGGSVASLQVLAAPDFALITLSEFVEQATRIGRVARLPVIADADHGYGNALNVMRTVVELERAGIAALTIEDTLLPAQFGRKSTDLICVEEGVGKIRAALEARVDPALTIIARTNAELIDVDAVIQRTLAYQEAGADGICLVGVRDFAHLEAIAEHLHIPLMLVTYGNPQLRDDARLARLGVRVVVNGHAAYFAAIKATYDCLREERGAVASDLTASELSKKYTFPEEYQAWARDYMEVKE
# Assay: Inhibition Assay
# From the text: Competitive inhibition constant determined for PA4872 catalyzed oxaloacetate decarboxylation.
row,Compound,Ki
1,O=C(O)C(=O)O,0.043 mM
2,"O=C(O)C(O)(O)C(F)(F)C(=O)O [3,3-Difluoroxaloacetate]",0.45 mM
3,CC(=O)CC(=O)C(=O)O [Acetopyruvate],1.09 mM and 0.56 mM
4,O=C(O)C(=O)CP(=O)(O)O [Phosphonopyruvate],3 mM
5,CC(=O)C(=O)O [Pyruvate],7.2 mM
6,CCCC(=O)C(=O)O [alpha-ketovalerate],6.7 mM and 3.2 mM

# Reference: BindingDB's records for doi:10.1021/bi701954p (University of Maryland Biotechnology Institute, 2008)
